Consider one molecule from patent US6967034B2, “Herbal-based composition for treating acute and chronic myeloid leukemia” (Council of Scientific and Industrial Research, priority 2002, dated 2005).

What all share (type): cell-based, human
In assay [1] the test system is CD33+ myeloid leukemia cells. In words: Incubation of PBMC of CD33+ myeloid leukemia patients, viability count and flow cytometry. To be noted: purified compound, varied concentrations, 48 h. The method, then:
Preparation of peripheral blood mononuclear cells (PBMC) from CD33+ myeloid leukemia patients ex vivo blood.
(§1) Whole blood (10 ml) was drawn from a previously diagnosed CD33+ myeloid leukemic patient and mononuclear cells were separated by Ficoll/hypaqal density gradient centrifugation.
Incubation of PBMC of myeloid leukemia patients with crude Piper betel extract. PBMC (2×10^6/ml) of myeloid leukemia patients were incubated with Piper betel extract (10.0 mg/ml) for 48 hours and then washed and counted for viability.
Incubation of PBMC of myeloid leukemia patients with fraction E in vitro. PBMC (2×10^6/ml) of myeloid leukemia patients were incubated with varied concentrations of fraction E for 48 hours. Cells were then washed and counted for viability.
(§2) Incubation of PBMC of myeloid leukemia patients with purified compound 3-O-p-coumaryl quinic acid in vitro. PBMC (2×10^6/ml) of myeloid leukemia patients were incubated with varied concentrations of purified compound for 48 h. Cells were then washed, and counted for viability.
Flow cytometry of myeloid leukemia cells. Myeloid leukemia cells before and after in vitro incubation with crude Piper betel extract, purified fraction E or purified 3-O-p-coumaryl quinic acid were marked with anti-CD33-FITC and anti-CD13-PE monoclonal antibodies. Cells were then analysed in a flow cytometer (FACS Calibur, Bection Dickinson, USA)

In assay [2] the test system is AML cells. In words: Growth inhibition of AML cells in vitro. The note with it: 48 h. The method, then:
as §1, §2
Incubation of myeloid leukemic cells with fractions having retention time 3.60 (fraction-1) and 24.00 min (fraction 9). PBMC of myeloid leukemic patients were incubated with above-mentioned fractions, alone or in combination of the two for 48 HRs. Cells were then washed and counted for viability.

In assay [3] the test system is CML cells. Put plainly: Growth inhibition of CML cells in vitro. The note with it: 48 h. The method, then:
as §1, §2

Take `O=C(C=Cc1ccc(O)cc1)OC1CC(O)(C(=O)O)CC(O)C1O` (stereo not drawn) [3-O-p-coumaryl quinic acid]: the “Destruction of PBMC of CD33+ myeloid leukemia patients (both AML and CML)” value in assay [1] is on record as “destroyed”. In addition, the “Percent inhibition of growth” value in assay [2] (100 μg/ml) was 53.37%; in assay [2] (600 μg/ml), 100.00%; in assay [3] (100 μg/ml) it was 2.53%; in assay [3] (600 μg/ml) it was 79.50%. Further, the “% Inhibition (percent inhibition of growth)” value in assay [2] (single fraction, dose 100 μg/ml) came out at 54.00%.
